Source: a compilation of properties of binary mixtures (doi:10.1021/jp2012254)

Experiment: xn = mol fraction of the nth substance listed
Details: 298 K, 101 kPa

CCCC[n+]1ccn(C)c1.O=S(=O)([N-]S(=O)(=O)C(F)(F)F)C(F)(F)F + CC#N
Details | electrical conductivity [S/m] | viscosity [mPa·s]
x2 = 0.1027 | 0.514 | –
x2 = 0.1028 | – | 39.6
x2 = 0.1514 | 0.567 | –
x2 = 0.2513 | 0.72 | –
x2 = 0.3638 | – | 17.8
x2 = 0.4169 | 1.08 | –
x2 = 0.5016 | 1.37 | –
x2 = 0.5238 | – | 9.4
x2 = 0.8396 | 3.67 | –
x2 = 0.9485 | 4.03 | –
x2 = 0.9667 | 3.41 | –
x2 = 0.9794 | 2.69 | –

CC(C)(C)O + CCCC[n+]1ccn(C)c1.O=S(=O)([N-]S(=O)(=O)C(F)(F)F)C(F)(F)F
Details | electrical conductivity [S/m] | viscosity [mPa·s]
x1 = 0.2367 | – | 35.8
x1 = 0.3616 | 0.485 | –
x1 = 0.401 | 0.488 | –
x1 = 0.4577 | 0.497 | –
x1 = 0.4791 | 0.5 | –
x1 = 0.5125 | 0.503 | –
x1 = 0.5277 | – | 20.8
x1 = 0.538 | 0.507 | –
x1 = 0.5851 | 0.505 | –
x1 = 0.7215 | 0.476 | –
x1 = 0.785 | 0.377 | –
x1 = 1 | – | 3.41

CC#N + CCCC[n+]1ccn(C)c1.O=S(=O)([N-]S(=O)(=O)C(F)(F)F)C(F)(F)F
Details | viscosity [mPa·s]
x1 = 1 | 0.37

CCCC[n+]1ccn(C)c1.O=S(=O)([N-]S(=O)(=O)C(F)(F)F)C(F)(F)F + CCCCO
Details | electrical conductivity [S/m] | viscosity [mPa·s]
x2 = 0.0121 | 0.408 | –
x2 = 0.1048 | – | 41.5
x2 = 0.1229 | 0.477 | –
x2 = 0.3394 | 0.578 | –
x2 = 0.3437 | – | 22.9
x2 = 0.4228 | 0.633 | –
x2 = 0.4428 | 0.667 | –
x2 = 0.5066 | – | 15.2
x2 = 0.518 | 0.677 | –
x2 = 0.545 | 0.677 | –
x2 = 0.5556 | 0.676 | –
x2 = 0.5882 | 0.675 | –
x2 = 0.608 | 0.674 | –
x2 = 0.6656 | 0.66 | –
x2 = 0.6796 | 0.67 | –
x2 = 0.7193 | – | 8.92
x2 = 0.7316 | 0.59 | 8.55
x2 = 0.7458 | 0.57 | –
x2 = 0.7645 | 0.56 | –
x2 = 0.7951 | 0.507 | –
x2 = 0.8487 | 0.401 | –
x2 = 0.8618 | – | 5.83
x2 = 0.878 | 0.349 | –

CO + CCCC[n+]1ccn(C)c1.O=S(=O)([N-]S(=O)(=O)C(F)(F)F)C(F)(F)F
Details | viscosity [mPa·s]
x1 = 1 | 0.544

CCCC[n+]1ccn(C)c1.O=S(=O)([N-]S(=O)(=O)C(F)(F)F)C(F)(F)F + CO
Details | electrical conductivity [S/m] | viscosity [mPa·s]
x1 = 0.0104 | 0.94 | –
x1 = 0.0197 | – | 0.71
x2 = 0 | – | 50.4
x2 = 0.0302 | 0.524 | 46.2
x2 = 0.0942 | 0.509 | –
x2 = 0.1177 | 0.549 | –
x2 = 0.1279 | 0.509 | –
x2 = 0.1577 | – | 35.8
x2 = 0.16 | – | 34.2
x2 = 0.1706 | 0.514 | –
x2 = 0.2298 | – | 28.8
x2 = 0.3938 | 0.651 | –
x2 = 0.432 | 0.99 | –
x2 = 0.5555 | 1.18 | –
x2 = 0.6132 | 1.74 | –
x2 = 0.6242 | – | 8.27
x2 = 0.662 | 1.89 | –
x2 = 0.6647 | 1.96 | –
x2 = 0.7009 | 2.12 | –
x2 = 0.7546 | 2.28 | –
x2 = 0.7799 | 2.29 | –
x2 = 0.7983 | 2.45 | –
x2 = 0.8188 | 2.49 | –
x2 = 0.8248 | – | 2.61
x2 = 0.8272 | 2.51 | –
x2 = 0.8805 | 2.58 | –
x2 = 0.8953 | – | 1.47
x2 = 0.9305 | 2.42 | –
x2 = 0.9462 | 2.23 | –
x2 = 0.9721 | 1.73 | –

CCCCO + CCCC[n+]1ccn(C)c1.O=S(=O)([N-]S(=O)(=O)C(F)(F)F)C(F)(F)F
Details | viscosity [mPa·s]
x1 = 1 | 2.6

CCCC[n+]1ccn(C)c1.O=S(=O)([N-]S(=O)(=O)C(F)(F)F)C(F)(F)F + CC(C)(C)O
Details | viscosity [mPa·s]
x2 = 0 | 50.4

CCCC[n+]1ccn(C)c1.O=S(=O)([N-]S(=O)(=O)C(F)(F)F)C(F)(F)F + O
Details | electrical conductivity [S/m] | viscosity [mPa·s]
x2 = 0.0012 | 0.416 | –
x2 = 0.0014 | 0.412 | –
x2 = 0.0053 | 0.412 | –
x2 = 0.0135 | 0.431 | –
x2 = 0.0273 | 0.444 | –
x2 = 0.0442 | – | 46.9
x2 = 0.0533 | 0.444 | –
x2 = 0.0737 | 0.466 | –
x2 = 0.0832 | – | 42.8
x2 = 0.1171 | 0.494 | –
x2 = 0.1253 | – | 37.2
x2 = 0.1429 | – | 35.4
x2 = 0.1439 | 0.52 | –
x2 = 0.1721 | – | 36
x2 = 0.1733 | 0.549 | –
x2 = 0.2119 | 0.583 | –
x2 = 0.2222 | – | 33.1
x2 = 0.2436 | 0.61 | –
x2 = 0.2523 | 0.599 | –
x2 = 0.2556 | – | 31
x2 = 0.2559 | 0.614 | –

ClCCl + CCCC[n+]1ccn(C)c1.O=S(=O)([N-]S(=O)(=O)C(F)(F)F)C(F)(F)F
Details | electrical conductivity [S/m] | viscosity [mPa·s]
x1 = 0.0175 | 0.453 | –
x1 = 0.1758 | – | 33.7
x1 = 0.243 | 0.454 | –
x1 = 0.3232 | – | 21.8
x1 = 0.3949 | 0.464 | –
x1 = 0.4152 | 0.539 | –
x1 = 0.4391 | – | 15.41
x1 = 0.4625 | 0.586 | –
x1 = 0.4718 | 0.634 | –
x1 = 0.5413 | 0.657 | –
x1 = 0.5646 | – | 10.01
x1 = 0.6165 | 1.08 | –
x1 = 0.6861 | 1.18 | –
x1 = 0.7283 | – | 4.25
x1 = 0.7345 | 1.33 | –
x1 = 0.7725 | 1.47 | –
x1 = 0.7751 | 1.37 | –
x1 = 0.776 | 1.47 | –
x1 = 0.8389 | 1.46 | –
x1 = 0.9008 | 1.21 | –
x1 = 0.9319 | 0.95 | –
x1 = 0.9506 | 0.739 | –
x1 = 0.9696 | 0.46 | –
x1 = 1 | – | 0.433
x2 = 0.0163 | 0.242 | –
x2 = 0.0187 | 0.287 | –
